Results from the supplement of paper PMC10307832.

How the values were obtained:
Assay in all cases: relative viability (nuclei count vs DMSO), 5 days (fraction); higher = more cells survive
ChaGo-K-1 = test system: ChaGo-K-1
Method in brief: (§1)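 Relative viability is defined as nuclei in treated wells over nuclei in vehicle wells. Duplicate plates were run and medians reported. Lung cancer cell lines in 1536-well plates were dosed by pin tool one day after seeding, with one drug or with a fixed anchor-drug dose plus five library-drug doses (not always all listed) in √10 steps, and nuclei were counted after 5 days.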

NCI-H2126 = test system: NCI-H2126
Method in brief: as §1

EPLC-272H = test system: EPLC-272H
Method in brief: as §1

SW 1573 = test system: SW 1573
Method in brief: as §1

NCI-H2023 = test system: NCI-H2023
Method in brief: as §1

NCI-H460 = test system: NCI-H460
Method in brief: as §1

NCI-H441 = test system: NCI-H441
Method in brief: as §1

NCI-H2170 = test system: NCI-H2170
Method in brief: as §1

LOU-NH91 = test system: LOU-NH91
Method in brief: as §1

NCI-H727 = test system: NCI-H727
Method in brief: as §1

NCI-H23 = test system: NCI-H23
Method in brief: as §1

NCI-H1437 = test system: NCI-H1437
Method in brief: as §1

HOP-62 = test system: HOP-62
Method in brief: as §1

NCI-H2405 = test system: NCI-H2405
Method in brief: as §1

NCI-H2347 = test system: NCI-H2347
Method in brief: as §1

NCI-H1793 = test system: NCI-H1793
Method in brief: as §1

NCI-H2009 = test system: NCI-H2009
Method in brief: as §1

NCI-H647 = test system: NCI-H647
Method in brief: as §1

EMC-BAC-2 = test system: EMC-BAC-2
Method in brief: as §1

NCI-H520 = test system: NCI-H520
Method in brief: as §1

HCC-44 = test system: HCC-44
Method in brief: as §1

## O=c1[nH]c2ccccc2n1C1CCN(CCCC(c2ccc(F)cc2)c2ccc(F)cc2)CC1 [Pimozide] + CC1(C)CCC(c2ccc(Cl)cc2)=C(CN2CCN(c3ccc(C(=O)NS(=O)(=O)c4ccc(N[C@H](CCN5CCOCC5)CSc5ccccc5)c(S(=O)(=O)C(F)(F)F)c4)cc3)CC2)C1 [Navitoclax] (partner 0.5 µM)
ChaGo-K-1; first compound 0.08 µM
  relative viability: 0.861
ChaGo-K-1; first compound 0.253 µM
  relative viability: 0.935
ChaGo-K-1; first compound 0.8 µM
  relative viability: 0.974
ChaGo-K-1; first compound 2.53 µM
  relative viability: 1.01
ChaGo-K-1; first compound 8 µM
  relative viability: 0.941
NCI-H2126; first compound 0.08 µM
  relative viability: 0.835
NCI-H2126; first compound 0.253 µM
  relative viability: 0.827
NCI-H2126; first compound 0.8 µM
  relative viability: 0.841
NCI-H2126; first compound 2.53 µM
  relative viability: 0.824
NCI-H2126; first compound 8 µM
  relative viability: 0.868
EPLC-272H; first compound 0.08 µM
  relative viability: 0.979
EPLC-272H; first compound 0.253 µM
  relative viability: 1.16
EPLC-272H; first compound 0.8 µM
  relative viability: 1.13
EPLC-272H; first compound 2.53 µM
  relative viability: 1.03
EPLC-272H; first compound 8 µM
  relative viability: 0.967
SW 1573; first compound 0.08 µM
  relative viability: 0.92
SW 1573; first compound 0.253 µM
  relative viability: 1.04
SW 1573; first compound 0.8 µM
  relative viability: 0.799
SW 1573; first compound 2.53 µM
  relative viability: 1.02
SW 1573; first compound 8 µM
  relative viability: 0.796
NCI-H2023; first compound 0.08 µM
  relative viability: 1.03
NCI-H2023; first compound 0.253 µM
  relative viability: 1.03
NCI-H2023; first compound 0.8 µM
  relative viability: 0.988
NCI-H2023; first compound 2.53 µM
  relative viability: 0.957
NCI-H2023; first compound 8 µM
  relative viability: 0.832
NCI-H460; first compound 0.08 µM
  relative viability: 1.19
NCI-H460; first compound 0.253 µM
  relative viability: 1.12
NCI-H460; first compound 0.8 µM
  relative viability: 1.06
NCI-H460; first compound 2.53 µM
  relative viability: 1.06
NCI-H460; first compound 8 µM
  relative viability: 0.957
NCI-H441; first compound 0.08 µM
  relative viability: 0.685
NCI-H441; first compound 0.253 µM
  relative viability: 0.697
NCI-H441; first compound 0.8 µM
  relative viability: 0.75
NCI-H441; first compound 2.53 µM
  relative viability: 0.487
NCI-H441; first compound 8 µM
  relative viability: 0.346
NCI-H2170; first compound 0.08 µM
  relative viability: 0.526
NCI-H2170; first compound 0.253 µM
  relative viability: 0.703
NCI-H2170; first compound 0.8 µM
  relative viability: 0.596
NCI-H2170; first compound 2.53 µM
  relative viability: 0.571
NCI-H2170; first compound 8 µM
  relative viability: 0.585
LOU-NH91; first compound 0.08 µM
  relative viability: 0.309
LOU-NH91; first compound 0.253 µM
  relative viability: 0.734
LOU-NH91; first compound 0.8 µM
  relative viability: 0.736
LOU-NH91; first compound 2.53 µM
  relative viability: 0.788
LOU-NH91; first compound 8 µM
  relative viability: 0.739
NCI-H727; first compound 0.08 µM
  relative viability: 0.415
NCI-H727; first compound 0.253 µM
  relative viability: 0.421
NCI-H727; first compound 0.8 µM
  relative viability: 0.409
NCI-H727; first compound 2.53 µM
  relative viability: 0.409
NCI-H727; first compound 8 µM
  relative viability: 0.379
NCI-H23; first compound 0.08 µM
  relative viability: 0.882
NCI-H23; first compound 0.253 µM
  relative viability: 0.807
NCI-H23; first compound 0.8 µM
  relative viability: 0.732
NCI-H23; first compound 2.53 µM
  relative viability: 0.844
NCI-H23; first compound 8 µM
  relative viability: 0.801
NCI-H1437; first compound 0.08 µM
  relative viability: 1.07
NCI-H1437; first compound 0.253 µM
  relative viability: 1.06
NCI-H1437; first compound 0.8 µM
  relative viability: 1.06
NCI-H1437; first compound 2.53 µM
  relative viability: 0.993
NCI-H1437; first compound 8 µM
  relative viability: 0.81
HOP-62; first compound 0.08 µM
  relative viability: 1.11
HOP-62; first compound 0.253 µM
  relative viability: 0.851
HOP-62; first compound 0.8 µM
  relative viability: 0.812
HOP-62; first compound 2.53 µM
  relative viability: 1.03
HOP-62; first compound 8 µM
  relative viability: 0.903
NCI-H2405; first compound 0.08 µM
  relative viability: 0.795
NCI-H2405; first compound 0.253 µM
  relative viability: 0.716
NCI-H2405; first compound 0.8 µM
  relative viability: 0.89
NCI-H2405; first compound 2.53 µM
  relative viability: 0.801
NCI-H2405; first compound 8 µM
  relative viability: 0.637
NCI-H2347; first compound 0.08 µM
  relative viability: 0.799
NCI-H2347; first compound 0.253 µM
  relative viability: 0.732
NCI-H2347; first compound 0.8 µM
  relative viability: 0.73
NCI-H2347; first compound 2.53 µM
  relative viability: 0.683
NCI-H2347; first compound 8 µM
  relative viability: 0.819
NCI-H1793; first compound 0.08 µM
  relative viability: 0.532
NCI-H1793; first compound 0.253 µM
  relative viability: 0.485
NCI-H1793; first compound 0.8 µM
  relative viability: 0.389
NCI-H1793; first compound 2.53 µM
  relative viability: 0.48
NCI-H1793; first compound 8 µM
  relative viability: 0.494
NCI-H2009; first compound 0.08 µM
  relative viability: 1.2
NCI-H2009; first compound 0.253 µM
  relative viability: 1.14
NCI-H2009; first compound 0.8 µM
  relative viability: 1.13
NCI-H2009; first compound 2.53 µM
  relative viability: 1.2
NCI-H2009; first compound 8 µM
  relative viability: 1.01
NCI-H647; first compound 0.08 µM
  relative viability: 1.17
NCI-H647; first compound 0.253 µM
  relative viability: 1.14
NCI-H647; first compound 0.8 µM
  relative viability: 0.91
NCI-H647; first compound 2.53 µM
  relative viability: 0.954
NCI-H647; first compound 8 µM
  relative viability: 0.837
EMC-BAC-2; first compound 0.08 µM
  relative viability: 1.09
EMC-BAC-2; first compound 0.253 µM
  relative viability: 1.11
EMC-BAC-2; first compound 0.8 µM
  relative viability: 1.05
EMC-BAC-2; first compound 2.53 µM
  relative viability: 1.06
EMC-BAC-2; first compound 8 µM
  relative viability: 1.07
NCI-H520; first compound 0.08 µM
  relative viability: 1.13
NCI-H520; first compound 0.253 µM
  relative viability: 1.05
NCI-H520; first compound 0.8 µM
  relative viability: 1.16
NCI-H520; first compound 2.53 µM
  relative viability: 1.07
NCI-H520; first compound 8 µM
  relative viability: 1.15
HCC-44; first compound 0.08 µM
  relative viability: 0.965
HCC-44; first compound 0.253 µM
  relative viability: 1
HCC-44; first compound 0.8 µM
  relative viability: 0.95
HCC-44; first compound 2.53 µM
  relative viability: 0.884
HCC-44; first compound 8 µM
  relative viability: 0.971
